The values below come from US20240246964A1 (Arbutus Biopharma Corporation, priority 2021, published 2024).

The structures appear in SMILES notation.

The term IC50 denotes the point on the concentration scale where inhibition reaches its midpoint. In general, EC50 refers to the concentration at which the effect is half-maximal.

One assay deals with PD-L1 His protein / PD-1 Fc protein (Homo sapiens (Human), UniProt Q9NZQ7). Kind of assay: HTRF Assay (PD-1/PD-L1 interaction). The following applies: PD-L1 His 6 nM, PD-1 Fc 6 nM. Format: binding. A general note: Time-resolved FRET reads energy transfer from a long-lived donor to a nearby acceptor.
Chain of PD-L1 His protein / PD-1 Fc protein (Q9NZQ7 19-238): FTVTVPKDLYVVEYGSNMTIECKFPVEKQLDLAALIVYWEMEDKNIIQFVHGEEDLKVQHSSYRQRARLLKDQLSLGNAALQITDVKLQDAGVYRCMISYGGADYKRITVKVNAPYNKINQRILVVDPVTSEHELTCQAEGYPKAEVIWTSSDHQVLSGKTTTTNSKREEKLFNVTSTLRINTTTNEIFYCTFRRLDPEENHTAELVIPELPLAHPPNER
Regarding `COc1nc(-c2cccc(-c3ccnc(-c4ccc(CN5CC6(CNC(=O)C6)C5)c(OC(F)F)c4)c3Cl)c2Cl)ccc1CNC1CCN(C(C)=O)CC1` [Example 684, 2-(4-(4-(3-(5-(((1-Acetylpiperidin-4-yl)amino)methyl)-6-methoxypyridin-2-yl)-2-chlorophenyl)-3-chloropyridin-2-yl)-2-(difluoromethoxy)benzyl)-2,6-diazaspiro[3.4]octan-7-one], inhibition was half-maximal at 1.8 nM (IC50). The same measure, in the same setting: as for `COc1cc(CNC2CCN(C(C)=O)CC2)cc(-c2nccc(-c3cccc(-c4ccc(CNC5CCN(C(C)=O)CC5)c(OC)n4)c3Cl)c2Cl)c1` [Compound 154, 1-(4-(((6-(3-(2-(3-(((1-acetylpiperidin-4-yl)amino)methyl)-5-methoxyphenyl)-3-chloropyridin-4-yl)-2-chlorophenyl)-2-methoxypyridin-3-yl)methyl)amino)piperidin-1-yl)ethan-1-one], the figure is 8.73 nM; as for `COc1nc(-c2cccc(-c3nccc(-c4ccc(CN5CCC(O)CC5)c(OC)n4)c3Cl)c2Cl)ccc1CN1CCC(O)CC1` [Example 759, 1-((3′-Chloro-2′-(2-chloro-3-(5-((4-hydroxypiperidin-1-yl)methyl)-6-methoxypyridin-2-yl)phenyl)-6-methoxy-[2,4′-bipyridin]-5-yl)methyl)piperidin-4-ol], 0.63 nM. Still for that read-out and setting: next, `COc1nc(-c2ccnc(-c3cccc4c3CC[C@@H]4Oc3nc(OC)c(CNC[C@@H]4CCC(=O)N4)cc3C(F)(F)F)c2Cl)ccc1CNC1CCN(C(C)=O)CC1` [Example 544, (S)-5-((((6-(((S)-4-(5-(((1-acetylpiperidin-4-yl)amino)methyl)-3′-chloro-6-methoxy-[2,4′-bipyridin]-2′-yl)-2,3-dihydro-1H-inden-1-yl)oxy)-2-methoxy-5-(trifluoromethyl)pyridin-3-yl)methyl)amino)methyl)pyrrolidin-2-one]: 0.8 nM.

In the next assay the target is human PD-L1 (Homo sapiens (Human), UniProt Q9NZQ7). Nature of the assay: T cell activation luciferase reporter cell culture system (T Cell Activation Assay). Format: cell-based. The following applies: luciferase reporter assay; PD-L1 aAPC/CHO-K1 cells with PD-1 effector Jurkat T cells. (Reporter assays use an easily measured gene product as a stand-in for the process of interest.)
Chain of human PD-L1 (Q9NZQ7 19-290): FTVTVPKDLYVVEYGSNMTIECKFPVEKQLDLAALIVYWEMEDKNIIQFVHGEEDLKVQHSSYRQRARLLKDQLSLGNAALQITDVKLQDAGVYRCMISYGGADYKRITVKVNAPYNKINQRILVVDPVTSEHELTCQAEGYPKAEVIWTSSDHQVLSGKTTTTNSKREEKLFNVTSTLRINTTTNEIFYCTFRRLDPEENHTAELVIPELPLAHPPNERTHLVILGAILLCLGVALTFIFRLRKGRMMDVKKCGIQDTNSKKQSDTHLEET
In turn, `COc1nc(-c2cccc(-c3ccnc(-c4ccc(CN5CC6(CNC(=O)C6)C5)c(OC(F)F)c4)c3Cl)c2Cl)ccc1CNC1CCN(C(C)=O)CC1` [Example 684, 2-(4-(4-(3-(5-(((1-Acetylpiperidin-4-yl)amino)methyl)-6-methoxypyridin-2-yl)-2-chlorophenyl)-3-chloropyridin-2-yl)-2-(difluoromethoxy)benzyl)-2,6-diazaspiro[3.4]octan-7-one] showed an EC50 of 34.9 nM. Same read-out and setting: next, `COc1cc(CNC2CCN(C(C)=O)CC2)cc(-c2nccc(-c3cccc(-c4ccc(CNC5CCN(C(C)=O)CC5)c(OC)n4)c3Cl)c2Cl)c1` [Compound 154, 1-(4-(((6-(3-(2-(3-(((1-acetylpiperidin-4-yl)amino)methyl)-5-methoxyphenyl)-3-chloropyridin-4-yl)-2-chlorophenyl)-2-methoxypyridin-3-yl)methyl)amino)piperidin-1-yl)ethan-1-one]: no less than 10000 nM; `COc1nc(-c2cccc(-c3nccc(-c4ccc(CN5CCC(O)CC5)c(OC)n4)c3Cl)c2Cl)ccc1CN1CCC(O)CC1` [Example 759, 1-((3′-Chloro-2′-(2-chloro-3-(5-((4-hydroxypiperidin-1-yl)methyl)-6-methoxypyridin-2-yl)phenyl)-6-methoxy-[2,4′-bipyridin]-5-yl)methyl)piperidin-4-ol]: 16.9 nM; `COc1nc(-c2cccc(-c3ccnc(-c4cc(OC)c5nc(CN[C@H]6CC[C@H](O)CC6)cn5c4)c3Cl)c2Cl)ccc1CNC[C@@H]1CCC(=O)N1` [Example 384, (S)-5-((((6-(2-Chloro-3-(3-chloro-2-(2-((((1r,4r)-4-hydroxycyclohexyl)amino)methyl)-8-methoxyimidazo[1,2-a]pyridin-6-yl)pyridin-4-yl)phenyl)-2-methoxypyridin-3-yl)methyl)amino)methyl)pyrrolidin-2-one]: 70 nM. The same measure, in the same setting: next, `COc1cc(-c2nccc(-c3cccc(-c4cc(Cl)c(CNC[C@@H]5CCC(=O)N5)c(OC)n4)c3Cl)c2Cl)ccc1CNCC(=O)O` [Cmpd 105, (S)-(4-(3-chloro-4-(2-chloro-3-(4-chloro-6-methoxy-5-((((5-oxopyrrolidin-2-yl)methyl)amino)methyl)pyridin-2-yl)phenyl)pyridin-2-yl)-2-methoxybenzyl)glycine]: 191 nM; `COCC(=O)N1CCC(NCc2ccc(-c3cccc(-c4ccnc(-c5ccc(CN6CCC(O)CC6)c(OC)c5)c4Cl)c3Cl)nc2OC)CC1` [Example 510, 1-(4-(((6-(2-Chloro-3-(3-chloro-2-(4-((4-hydroxypiperidin-1-yl)methyl)-3-methoxyphenyl)pyridin-4-yl)phenyl)-2-methoxypyridin-3-yl)methyl)amino)piperidin-1-yl)-2-methoxyethan-1-one]: 27 nM. Consider `CNCc1ccc(-c2ccnc(-c3cccc4c3CCC[C@@H]4Nc3nc(OC)c(CNC)cc3C(F)(F)F)c2Cl)nc1OC` [Example 732, (S)—N-(5-(3′-Chloro-6-methoxy-5-((methylamino)methyl)-[2,4′-bipyridin]-2′-yl)-1,2,3,4-tetrahydronaphthalen-1-yl)-6-methoxy-5-((methylamino)methyl)-3-(trifluoromethyl)pyridin-2-amine], for which the EC50 is no less than 10000 nM. On to `COc1cc(-c2nccc(-c3cccc(-c4ccc(CNC[C@@H]5CCC(=O)N5)c(OC)n4)c3Cl)c2Cl)cc(F)c1CNC[C@H](C)O` [Cmpd 80, (S)-5-((((6-(2-chloro-3-(3-chloro-2-(3-fluoro-4-((((S)-2-hydroxypropyl)amino)methyl)-5-methoxyphenyl)pyridin-4-yl)phenyl)-2-methoxypyridin-3-yl)methyl)amino)methyl)pyrrolidin-2-one], for which it took 46.2 nM to reach a half-maximal effect (EC50). Take `COc1cc(-c2nccc(-c3cccc(-c4ccc(CNC[C@@H]5CCC(=O)N5)c(OC)n4)c3Cl)c2Cl)cc2c1CCN(C[C@H](C)O)C2` [Cmpd 44, (S)-5-((((6-(2-chloro-3-(3-chloro-2-(2-((S)-2-hydroxypropyl)-5-methoxy-1,2,3,4-tetrahydroisoquinolin-7-yl)pyridin-4-yl)phenyl)-2-methoxypyridin-3-yl)methyl)amino)methyl)pyrrolidin-2-one]: the response was half-maximal at 54.1 nM (EC50). Molecule `COc1cc(-c2ncnc(-c3cccc(-c4ccc(CNC5CCOCC5)c(OC)n4)c3Cl)c2Cl)ccc1CNC1CCOCC1` [Example 626, N-((6-(2-Chloro-3-(5-chloro-6-(3-methoxy-4-(((tetrahydro-2H-pyran-4-yl)amino)methyl)phenyl)pyrimidin-4-yl)phenyl)-2-methoxypyridin-3-yl)methyl)tetrahydro-2H-pyran-4-amine] came in with an EC50 of 79 nM. This EC50 and that of the molecule before are within 1.5-fold of each other. Still for that read-out and setting: as for `COc1cc(-c2nccc(-c3cccc(NC(=O)c4ccc(CNC[C@@H]5CCC(=O)N5)cn4)c3C)c2Cl)ccc1CNC1CCN(C(C)=O)CC1` [Example 747, (S)—N-(3-(2-(4-(((1-acetylpiperidin-4-yl)amino)methyl)-3-methoxyphenyl)-3-chloropyridin-4-yl)-2-methylphenyl)-5-((((5-oxopyrrolidin-2-yl)methyl)amino)methyl)picolinamide], the figure is 825 nM. The same measure, in the same setting: as for `COc1cc(-c2nccc(-c3cccc(-c4cc(Cl)c(CNC[C@@H]5CCC(=O)N5)c(OC)n4)c3Cl)c2Cl)ccc1CNCC(=O)OC(C)C` [Cmpd 123, isopropyl (S)-(4-(3-chloro-4-(2-chloro-3-(4-chloro-6-methoxy-5-((((5-oxopyrrolidin-2-yl)methyl)amino)methyl)pyridin-2-yl)phenyl)pyridin-2-yl)-2-methoxybenzyl)glycinate], the figure is 129 nM; as for `COc1cc(-c2nccc(-c3cccc(-c4ccc5c(CNC6CCS(=O)(=O)CC6)cn(C)c5n4)c3Cl)c2Cl)ccc1CNC1CCN(C(C)=O)CC1` [Example 558, 1-(4-((4-(3-Chloro-4-(2-chloro-3-(3-(((1,1-dioxidotetrahydro-2H-thiopyran-4-yl)amino)methyl)-1-methyl-1H-pyrrolo[2,3-b]pyridin-6-yl)phenyl)pyridin-2-yl)-2-methoxybenzyl)amino)piperidin-1-yl)ethan-1-one], no less than 10000 nM; as for `COc1cc(-c2nccc(-c3cccc(-c4ccc(CNC5CCN(C(=O)C(C)C)CC5)c(OC)n4)c3Cl)c2Cl)cc(F)c1CNC1CCN(C(=O)C(C)C)CC1` [Example 347, 1-(4-(((6-(2-Chloro-3-(3-chloro-2-(3-fluoro-4-(((1-isobutyrylpiperidin-4-yl)amino)methyl)-5-methoxyphenyl)pyridin-4-yl)phenyl)-2-methoxypyridin-3-yl)methyl)amino)piperidin-1-yl)-2-methylpropan-1-one], 69.6 nM. Still for that read-out and setting: next, `COc1cc(-c2ncnc(-c3cccc(-c4ccc(CNCCO)c(OC)n4)c3Cl)c2Cl)ccc1CN1CC2(CNC(=O)C2)C1` [Example 711, 2-(4-(5-Chloro-6-(2-chloro-3-(5-(((2-hydroxyethyl)amino)methyl)-6-methoxypyridin-2-yl)phenyl)pyrimidin-4-yl)-2-methoxybenzyl)-2,6-diazaspiro[3.4]octan-7-one]: 195 nM.

`COc1cc(-c2nccc(-c3cccc4c3CCC[C@@H]4Nc3nc(OC)c(CNC[C@@H]4CCC(=O)N4)cc3C(F)(F)F)c2Cl)ccc1CNC[C@@H]1CCC(=O)N1` [Example 710, (S)-5-((((6-(((S)-5-(3-Chloro-2-(3-methoxy-4-(((((S)-5-oxopyrrolidin-2-yl)methyl)amino)methyl)phenyl)pyridin-4-yl)-1,2,3,4-tetrahydronaphthalen-1-yl)amino)-2-methoxy-5-(trifluoromethyl)pyridin-3-yl)methyl)amino)methyl)pyrrolidin-2-one] yielded an EC50 of no less than 10000 nM. For `COc1cc(-c2nccc(-c3cccc(-c4ccc(CNC[C@@H]5CCC(=O)N5)c(OC)n4)c3Cl)c2Cl)ccc1CNC1CC2(C1)CN(C(C)=O)C2` [Example 237, (S)-5-((((6-(3-(2-(4-(((2-acetyl-2-azaspiro[3.3]heptan-6-yl)amino)methyl)-3-methoxyphenyl)-3-chloropyridin-4-yl)-2-chlorophenyl)-2-methoxypyridin-3-yl)methyl)amino)methyl)pyrrolidin-2-one], the EC50 was 22.1 nM. That is a double-digit nanomolar value. The same measure, in the same setting: next, `COc1cc(-c2nccc(-c3cccc(-c4ccc(CN(C)C)c(OC)n4)c3Cl)c2Cl)ccc1CN(C)C` [Cmpd 137, 1-(6-(2-chloro-3-(3-chloro-2-(4-((dimethylamino)methyl)-3-methoxyphenyl)pyridin-4-yl)phenyl)-2-methoxypyridin-3-yl)-N,N-dimethylmethanamine]: 84.3 nM.

The molecule `COc1cc(-c2nccc(-c3cccc(-c4ccc(CN5CC6(CNC(=O)C6)C5)c(OC)n4)c3C#N)c2Cl)ccc1CN1CC2(CNC(=O)C2)C1` [Example 653, 2-(3-Chloro-2-(3-methoxy-4-((7-oxo-2,6-diazaspiro[3.4]octan-2-yl)methyl)phenyl)pyridin-4-yl)-6-(6-methoxy-5-((7-oxo-2,6-diazaspiro[3.4]octan-2-yl)methyl)pyridin-2-yl)benzonitrile] returned an EC50 of 208 nM. Still for that read-out and setting: next, `COc1cc(-c2ccnc(-c3cccc(-c4ccc(CNC[C@@H]5CCC(=O)N5)c(OC)n4)c3Cl)c2Cl)ccc1CNC[C@@H]1CCC(=O)N1` [Example 624, (S)-5-(((4-(3-Chloro-2-(2-chloro-3-(6-methoxy-5-(((((S)-5-oxopyrrolidin-2-yl)methyl)-amino)methyl)pyridin-2-yl)phenyl)pyridin-4-yl)-2-methoxybenzyl)-amino)methyl)pyrrolidin-2-one]: 16.7 nM.
